Test results as given in US20250257095A1, “METHOD FOR VISIBLE LIGHT-MEDIATED CHEMICAL MODIFICATION OF POLYPEPTIDE AND PROTEIN BASED ON CYSTEINE” (SHANGHAI JIAO TONG UNIVERSITY, priority 2022, published 2025).

Assay: Plasma stability test (incubation in plasma at 37° C., LC-MS/MS)
Type: in vitro ADME
Conditions: 2 h later; for metabolised at 2 h, 5 μg/mL: read-out: compound degraded in plasma
Description: About 3 μL of a 500 μg/mL compound was taken and added to 297 μL of plasma. Incubation was conducted at 37° C. for 0 h to 3 h. 20 μL of a sample was collected at 1 min, 10 min, 30 min, 60 min, and 120 min. Then 100 μL of acetonitrile was added to precipitate proteins. Then 1 μL of a sample was collected and tested by liquid chromatography-tandem triple quadrupole mass spectrometer (LC-MS/MS) to determine a downward response of the compound in the plasma. The stability of the compound in the plasma could be quantified through plotting.

## CCN1C(=O)CC(SC[C@@H](NC(=O)[C@@H](CCCCNC(=O)OC(C)(C)C)NC(=O)OCc2ccccc2)C(=O)O)C1=O (stereo partly shown) [compound 2]
  metabolised at 2 h, 5 μg/mL: ~1.5%

## COC(=O)[C@H](CCC(=O)c1ccccc1)NC(=O)[C@H](CCCCNC(=O)OC(C)(C)C)NC(=O)OCc1ccccc1 [DP-11]
  compound degraded in plasma: not observed

## COC(=O)[C@H](CCC(=O)c1ccccc1)NC(=O)[C@H](Cc1ccccc1)NC(=O)OC(C)(C)C [DP-04]
  compound degraded in plasma: not observed

## CCN1C(=O)CC(SC[C@@H](NC(=O)[C@@H](Cc2ccccc2)NC(=O)OC(C)(C)C)C(=O)O)C1=O (stereo partly shown) [compound 1]
  metabolised at 2 h, 5 μg/mL: ~14%
